Assay results published in patent US20240335569A1, “FIBROBLAST ACTIVATION PROTEIN INHIBITORS AND USE THEREOF” (3 B PHARMACEUTICALS GMBH, priority 2021, published 2024).

Legend:
[1] = target: FAP-expressing human WI-38 fibroblasts (Homo sapiens (Human), UniProt Q12884); experiment: FACS binding assay (competitive, Cy5-labeled 3BP-2935); details: FAP-expressing WI-38 fibroblasts
Description: In order to determine binding of compounds according to the present invention to FAP-expressing cells, a competitive FACS binding assay was established. […] Cells were diluted in FACS buffer to a final concentration of 100.000 cells per ml and 200 μl of the cell suspension are transferred to a u-shaped non-binding 96-well plate (Greiner). […] Cell were washed twice with FACS buffer (see above) and resuspended in 200 μl FACS buffer. Cells were analyzed in an Attune NxT flow cytometer (Thermo Fisher Scientific). Median fluorescence intensities (Cy5 channel) were calculated by Attune NxT software and plotted against test compound concentrations. Four parameter logistic (4PL) curve fitting and pIC50 calculations were performed using ActivityBase software.

Human recombinant FAP [2] = target: T1, Human recombinant FAP (Homo sapiens (Human), UniProt Q12884); experiment: FAP protease activity assay (human), FRET-based; format: biochemical; details: recombinant human FAP, FRET protease activity
Description: (§1) In order to determine the inhibitory activity a FRET-based FAP protease activity assay was established.
Four parameter logistic (4PL) curve fitting and pIC50 calculations were performed using ActivityBase software (IDBS).
Target sequence in this assay (Q12884 26-760): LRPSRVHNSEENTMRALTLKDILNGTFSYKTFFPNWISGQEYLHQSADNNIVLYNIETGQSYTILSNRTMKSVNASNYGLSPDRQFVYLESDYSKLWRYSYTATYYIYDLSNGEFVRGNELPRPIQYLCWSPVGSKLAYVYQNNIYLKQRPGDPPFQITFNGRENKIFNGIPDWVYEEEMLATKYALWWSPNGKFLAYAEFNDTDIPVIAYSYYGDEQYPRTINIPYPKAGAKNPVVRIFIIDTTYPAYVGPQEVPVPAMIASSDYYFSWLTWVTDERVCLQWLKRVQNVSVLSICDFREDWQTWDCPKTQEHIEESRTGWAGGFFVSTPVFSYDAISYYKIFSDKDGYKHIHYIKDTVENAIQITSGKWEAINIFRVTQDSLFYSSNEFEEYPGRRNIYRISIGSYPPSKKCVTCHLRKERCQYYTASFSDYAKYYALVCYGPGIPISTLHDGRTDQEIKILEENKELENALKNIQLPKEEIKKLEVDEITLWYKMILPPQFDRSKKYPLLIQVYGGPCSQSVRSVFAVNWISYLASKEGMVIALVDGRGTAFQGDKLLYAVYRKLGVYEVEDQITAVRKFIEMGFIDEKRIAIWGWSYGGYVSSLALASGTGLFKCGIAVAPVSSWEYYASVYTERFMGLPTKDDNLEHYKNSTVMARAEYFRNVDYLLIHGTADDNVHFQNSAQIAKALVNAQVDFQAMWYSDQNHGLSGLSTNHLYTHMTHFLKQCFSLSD

Human recombinant FAP [3] = target: T1, Human recombinant FAP; experiment: Surface plasmon resonance assay (Biacore T200, SCK); format: binding; details: for pKD (Biacore): SPR; for HL [min] (Biacore): SPR dissociation half-life
Description: Surface plasmon resonance studies were performed using a Biacore™ T200 SPR system (Cytiva, formerly GE Healthcare). Briefly, polarized light is directed towards a gold-labeled sensor surface, and minimum intensity reflected light is detected. The angle of reflected light changes as molecules bind and dissociate. […] Test compounds are contacted with the loaded surface, and a real-time interaction profile with the FAP ligand is recorded in a sensorgram. In real-time, the association and dissociation of a binding interaction is measured, enabling calculation of association and dissociation rate constants and the corresponding affinity constants. Importantly, a background response is generated due to the difference in the refractive indices of the running and sample buffers, as well as unspecific binding of the test compounds to the flow cell surface. This background is measured and subtracted by running the sample on a control flow cell coated with the same density of capture antibody in the absence of immobilized FAP. Furthermore, baseline drift correction of the binding data is performed, which is caused by slow dissociation of the captured FAP from the immobilized antibody. This drift is measured by injecting running buffer through a flow cell with the antibody and FAP immobilized to the sensor surface.
Biacore™ CM5 sensor chips were used. […] A 150 μL aliquot was transferred into plastic vials and placed into the sample rack of the Biacore™ T200 instrument. Amine Coupling Kit Reagent solutions were transferred into plastic vials and placed into the sample rack: 90 μL of 0.4 M 1-ethyl-3-(3-dimethylaminopropyl) carbodiimide (EDC), and 90 μL of 0.1 M N-hydroxysuccinimide (NHS). A 130 μL aliquot of 1 M ethanolamine-HCl, pH 8.5, was transferred into plastic vials and placed into the sample rack. The Biacore™ liquid system was set-up as follows: Separate bottles containing distilled water (1 L), Running Buffer (500 mL), as well as an empty bottle for waste were placed onto the buffer tray. A preinstalled program for immobilization was used, with an immobilization level of 7000 RU. Immobilization was performed at 25° C. The immobilization procedure of anti-FAP antibodies was performed, as described in the Table 4.
Human recombinant FAP was diluted in Running Buffer to a final concentration of 20 μg/mL. A 100 μL aliquot of human FAP-Working-Solution was transferred into plastic vials and placed into a sample rack. A 0.5 mM Compound-Stock-Solution was prepared by dissolving each compound in DMSO. For each test compound, Compound-Stock-Solutions were diluted in Running Buffer (HBST) at 500 nM and further diluted with HBST-DMSO Buffer (0.1% DMSO). SPR binding analyses for binary complexes were performed in SCK mode at 25° C. Following three SCK measurements, a baseline drift was assessed by injecting running buffer through a flow cell, with the antibody and FAP immobilized to the sensor surface.
For each test compound, SPR raw data in the form of resonance units (RU) were plotted as sensorgrams using the Biacore™ T200 control software. The signal from the blank sensorgram was subtracted from that of the test compound sensorgram (blank corrected). The blank corrected sensorgram was corrected for baseline drift by subtracting the sensorgram of a SCK run without the test compound (running buffer only). The association rate (kon), dissociation rate (koff), dissociation constant (KD), and t1/2 were calculated from Blank-normalized SPR data using the 1:1 Langmuir binding model from the Biacore™ T200 evaluation software. Raw data and fit results were imported as text files in IDBS. The pKD value (negative decadic logarithm of dissociation constant) was calculated in the IDBS excel template.
Target sequence in this assay (Q12884 whole entry): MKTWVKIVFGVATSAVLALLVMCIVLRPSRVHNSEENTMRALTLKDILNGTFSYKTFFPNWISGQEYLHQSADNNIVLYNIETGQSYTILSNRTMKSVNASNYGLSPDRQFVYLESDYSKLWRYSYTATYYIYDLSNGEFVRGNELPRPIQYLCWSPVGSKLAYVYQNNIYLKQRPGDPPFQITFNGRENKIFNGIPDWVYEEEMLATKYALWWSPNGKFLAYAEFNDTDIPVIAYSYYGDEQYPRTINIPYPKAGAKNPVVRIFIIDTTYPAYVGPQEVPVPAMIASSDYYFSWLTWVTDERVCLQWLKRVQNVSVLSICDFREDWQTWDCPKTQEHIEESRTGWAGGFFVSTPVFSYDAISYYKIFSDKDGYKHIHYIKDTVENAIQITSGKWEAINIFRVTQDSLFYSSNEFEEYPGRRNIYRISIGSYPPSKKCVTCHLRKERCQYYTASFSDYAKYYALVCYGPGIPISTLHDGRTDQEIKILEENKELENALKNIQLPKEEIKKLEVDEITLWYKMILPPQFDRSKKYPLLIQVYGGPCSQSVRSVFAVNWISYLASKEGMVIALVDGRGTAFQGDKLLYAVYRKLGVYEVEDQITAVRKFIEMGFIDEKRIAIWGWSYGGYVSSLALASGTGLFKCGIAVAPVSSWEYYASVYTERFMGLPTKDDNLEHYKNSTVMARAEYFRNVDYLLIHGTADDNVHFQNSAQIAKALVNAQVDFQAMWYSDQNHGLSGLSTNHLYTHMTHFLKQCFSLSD

Recombinant mouse FAP = Recombinant mouse FAP (Mus musculus (Mouse), UniProt P97321); experiment: FAP protease activity assay (mouse), FRET-based; format: biochemical; details: recombinant mouse FAP, FRET protease activity
Recombinant mouse FAP, sequence (P97321 whole entry): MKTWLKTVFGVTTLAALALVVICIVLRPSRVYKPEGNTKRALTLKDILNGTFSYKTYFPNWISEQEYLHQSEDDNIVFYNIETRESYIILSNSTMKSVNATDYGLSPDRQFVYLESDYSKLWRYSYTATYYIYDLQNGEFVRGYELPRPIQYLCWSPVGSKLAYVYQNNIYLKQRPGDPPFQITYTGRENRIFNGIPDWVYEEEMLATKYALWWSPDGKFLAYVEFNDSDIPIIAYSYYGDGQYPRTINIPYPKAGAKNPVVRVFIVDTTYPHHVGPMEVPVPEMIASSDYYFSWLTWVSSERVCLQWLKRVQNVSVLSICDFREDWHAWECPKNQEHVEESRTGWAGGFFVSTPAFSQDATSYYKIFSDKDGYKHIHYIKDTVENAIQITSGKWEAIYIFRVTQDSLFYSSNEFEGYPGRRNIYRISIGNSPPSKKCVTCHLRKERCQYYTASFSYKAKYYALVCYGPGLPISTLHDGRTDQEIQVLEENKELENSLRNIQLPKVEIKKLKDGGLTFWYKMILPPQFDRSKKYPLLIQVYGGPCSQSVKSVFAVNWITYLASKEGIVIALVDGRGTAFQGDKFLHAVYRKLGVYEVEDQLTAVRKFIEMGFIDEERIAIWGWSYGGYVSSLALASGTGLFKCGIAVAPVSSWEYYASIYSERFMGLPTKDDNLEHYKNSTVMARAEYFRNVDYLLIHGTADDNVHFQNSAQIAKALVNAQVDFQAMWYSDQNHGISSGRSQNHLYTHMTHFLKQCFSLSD
Description: as §1
Four parameter logistic (4PL) curve fitting and pIC50 calculations were performed using ActivityBase software.

recombinant human PREP = recombinant human PREP (Homo sapiens (Human), UniProt P48147); experiment: PREP protease activity assay; format: biochemical
recombinant human PREP, sequence (P48147 whole entry): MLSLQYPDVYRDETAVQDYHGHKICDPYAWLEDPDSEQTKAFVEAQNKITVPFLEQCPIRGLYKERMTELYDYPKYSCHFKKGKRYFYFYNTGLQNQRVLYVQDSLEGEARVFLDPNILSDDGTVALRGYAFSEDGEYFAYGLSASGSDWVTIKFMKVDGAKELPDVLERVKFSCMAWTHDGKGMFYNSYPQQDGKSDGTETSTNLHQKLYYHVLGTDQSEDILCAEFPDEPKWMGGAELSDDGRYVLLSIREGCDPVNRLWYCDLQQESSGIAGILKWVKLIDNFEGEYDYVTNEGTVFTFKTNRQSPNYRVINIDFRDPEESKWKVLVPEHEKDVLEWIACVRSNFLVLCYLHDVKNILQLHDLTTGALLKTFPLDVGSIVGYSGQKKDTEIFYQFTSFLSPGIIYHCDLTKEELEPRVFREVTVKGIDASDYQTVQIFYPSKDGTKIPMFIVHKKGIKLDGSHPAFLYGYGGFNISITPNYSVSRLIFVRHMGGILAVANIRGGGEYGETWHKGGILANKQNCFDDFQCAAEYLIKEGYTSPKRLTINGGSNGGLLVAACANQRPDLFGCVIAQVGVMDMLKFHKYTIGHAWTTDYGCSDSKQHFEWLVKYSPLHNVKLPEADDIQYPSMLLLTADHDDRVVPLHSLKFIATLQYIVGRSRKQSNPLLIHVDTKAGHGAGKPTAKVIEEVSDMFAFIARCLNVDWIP
Description: (§2) The PREP activity assay was performed using the FACS buffer (PBS including 1% FBS, Sigma-Aldrich, Cat #D8537). […] The DPP4 activity assay was performed in DPP assay buffer (25 mM Tris, pH 8.0). […] Four parameter logistic (4PL) curve fitting and pIC50 calculations were performed using ActivityBase software.

Recombinant human DPP4 = Recombinant human DPP4 (Homo sapiens (Human), UniProt P27487); experiment: DPP4 protease activity assay; format: biochemical
Recombinant human DPP4, sequence (P27487 whole entry): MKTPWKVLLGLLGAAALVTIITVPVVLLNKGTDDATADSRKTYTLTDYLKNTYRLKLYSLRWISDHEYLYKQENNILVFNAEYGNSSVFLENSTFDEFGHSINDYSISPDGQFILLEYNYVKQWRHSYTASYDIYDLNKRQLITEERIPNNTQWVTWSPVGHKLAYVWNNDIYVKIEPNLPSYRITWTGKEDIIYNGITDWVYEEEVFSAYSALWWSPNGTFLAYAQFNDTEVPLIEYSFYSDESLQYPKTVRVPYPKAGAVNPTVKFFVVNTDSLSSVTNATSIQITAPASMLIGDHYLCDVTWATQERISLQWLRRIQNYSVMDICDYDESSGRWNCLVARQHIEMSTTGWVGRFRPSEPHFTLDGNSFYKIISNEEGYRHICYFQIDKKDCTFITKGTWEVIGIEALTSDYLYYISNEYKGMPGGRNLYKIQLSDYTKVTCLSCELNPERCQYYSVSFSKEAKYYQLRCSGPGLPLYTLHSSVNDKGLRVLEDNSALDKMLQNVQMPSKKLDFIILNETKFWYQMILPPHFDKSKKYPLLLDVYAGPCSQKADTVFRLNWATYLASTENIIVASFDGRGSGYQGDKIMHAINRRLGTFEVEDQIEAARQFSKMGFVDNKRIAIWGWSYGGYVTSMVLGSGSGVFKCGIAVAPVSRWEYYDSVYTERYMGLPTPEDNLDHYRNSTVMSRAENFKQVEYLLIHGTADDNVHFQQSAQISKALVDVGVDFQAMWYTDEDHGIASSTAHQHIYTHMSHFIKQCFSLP
Description: as §2

[4] = Plasma stability assay (mouse plasma); format: in vitro ADME; details: 37° C., 4 h
Description: In order to determine the stability of selected compounds of the invention in human and mouse plasma, a plasma stability assay was carried out. Such plasma stability assay measures degradation of compounds of the present invention in blood plasma. This is an important characteristic of a compound as compounds, with the exception of pro-drugs, which rapidly degrade in plasma, generally show poor in vivo efficacy. […] The stability is sufficient for the diagnostic, therapeutic and theragnostic use of these compounds according to the present invention.
The plasma stability samples were prepared by spiking 50 μl plasma aliquots (all sodium citrate 3.8%) with 1 μL of a 0.5 mM compound stock solution in DMSO. After vortexing, the samples were incubated in a Thermomixer at 37° C. for 4 or 6 hours. After incubation, the samples were stored on ice until further treatment. All samples were prepared in duplicates.
A suitable internal standard was added to each sample (1 μL of a 0.5 mM stock solution in DMSO). Protein precipitation was performed using two different methods depending on the compound conditions as indicated in Table 7. • A) 250 μL of acetonitrile containing 1% trifluoroacetic acid was added. […] After incubation at room temperature for 30 min, the precipitate was separated by centrifugation. To 100 μL of the supernatant 10 μL of 1% formic acid was added followed by further incubation at 60° C. for 10 min to complete the formation of the zinc chelate, if the compound contains a free DOTA moiety.
The determination of the analyte in the clean sample solutions was performed on an Agilent 1290 UHPLC system coupled to an Agilent 6530 Q-TOF mass spectrometer. The chromatographic separation was carried out on a Phenomenex BioZen XB-C18 HPLC column (50×2 mm, 1.7 μm particle size) with gradient elution using a mixture of 0.1% formic acid in water as eluent A and acetonitrile as eluent B (2% B to 41% in 7 min, 800 μL/min, 40° C.). Mass spectrometric detection was performed in positive ion ESI mode by scanning the mass range from m/z 50 to 3000 with a sampling rate of 2/sec.
From the mass spectrometric raw data, the ion currents for the double or triple charged monoisotopic signal was extracted for both, the compound and the internal standard.
Quantitation was performed by external matrix calibration with internal standard using the integrated analyte signals.
The result is stated as “% intact compound remaining after 4 h or 6 h” and means that from the amount of material at the start of the experiment the stated percentage is detected as unchanged material at the end of the experiment by LC-MS quantification. Since all compounds are more than 50% intact after at least 4 h they are considered as stable enough for diagnostic and therapeutic applications.

FAP-expressing human WI-38 fibroblasts, sequence (Q12884 whole entry): as the sequence (Q12884 whole entry) above

pIC50 (FACS) [1]	pIC50 (Activity) (Human recombinant FAP [2])	pKD (Biacore) (Human recombinant FAP [3])	HL [min] (Biacore) (Human recombinant FAP [3])	pIC50 (mouseFAP) (Recombinant mouse FAP)	pIC50 (PREP) (recombinant human PREP)	pIC50 (DPP4) (Recombinant human DPP4)	% intact compound remaining after incubation, Mouse plasma [4] [%]	SMILES
8.8	9.2	10.1	29	9	<6	6.1	78	CS(=O)(=O)c1cccc(-c2ccc3nccc(C(=O)NCC(=O)N4CC(F)(F)C[C@H]4C#N)c3c2)c1 [Compound 3BP-3126]
8.7	9.1	10.1		8.9	<6	<6	>95	CS(=O)(=O)c1cccc(-c2ccc3c(C(=O)NCC(=O)N4CC(F)(F)C[C@H]4C#N)ccnc3c2)c1 [Compound 3BP-3127]
8.2	8.8	9.2	4		6.1	<6	>95	CS(=O)(=O)c1ccc(-c2ccc3c(C(=O)NCC(=O)N4CCC[C@H]4C#N)ccnc3c2)cc1 [Compound 3BP-3128]
7.9	8.2	8.6	0.6		9.2	<6	92	O=C(NCC(=O)N1CCC[C@H]1C(=O)c1ncco1)c1ccnc2ccccc12 [Compound 3BP-3208]
